From patent US20100173832A1, “ANTICANCEROUS POLYMERIC AGENTS” (TECHNION RESEARCH & DEVELOPMENT FOUNDATION LTD., priority 2007, published 2010)
Where two headings read alike, the source gives them in different places. Non-standard residues stand in square brackets, D forms with d. Residues, ends and D or L forms follow the SMILES beside them. *: point of attachment. Lauroyl = CCCCCCCCCCCC(=O)*; 12Ado = NCCCCCCCCCCCC(=O)O; Octanoyl = CCCCCCCC(=O)*

What was measured:
[1] = in vitro; settings: human
Description: The polymer's toxic potential was determined against human red blood cells (RBC) by measuring leakage of hemoglobin therefrom in phosphate buffer solution (PBS). Human blood samples were rinsed three times in PBS by centrifugation for 2 minutes at 200×g, and re-suspended in PBS at 5% hematocrit. A 50 μl-fractions of a suspension containing […] RBC were added to test tubes containing 200 μl of polymer solutions (2-fold serial dilutions in PBS), PBS alone (for base-line values), or distilled water (for 100% hemolysis). […] Controls for base-line hemolysis (blank) and 100% hemolysis consisted of RBC suspended in PBS and TritonX100 (0.2%), respectively.

[2] = system: N-417 cell line; assay: XTT cell viability assay, N-417 cells; type: cell-based
Excerpt: Variant small cell lung cancer cells (N-417, SCLC);
(§1) As a routine cancer cell killing assay for assessment of antitumor activity, 2,3-bis(2-methoxy-4-nitro-5-sulfophenyl)-2H-tetrazolium-5-carboxanilide inner salt (XTT) reduction assay was used, utilizing a commercial kit such as, for example, Cell Proliferation XTT Kit, Cat. No. 20-300-1000, Biological Industries Ltd., Kibbutz Beit Haemek, Israel. XTT is a tetrazolium salt which is cleaved to formazan colored compounds by the mitochondrial dehydrogenase enzymes indicating proper mitochondrial activity in intact cells.
(§2) Thereafter, a series of increasing concentrations of the polymers were added. After another 24 hours of incubation, XTT reaction solution was added (50 μl of XTT per 100 μl of cell culture medium). The optical density of the cells was measured at 450 nm by ELISA plate reader after 2-4 hours XTT incubation. Cell viability was determined relative to a control having no polymer added thereto.
“Human breast cancer MCF-7” represents the lethal concentration in μM as measured against MCF-7 cell line, measured as described hereinabove in the cell proliferation XTT assay (column 6 in Table 3); “Human small-cell lung carcinoma N-417” represents the lethal concentration in μM as measured against N-417 cell line, measured as described hereinabove in the cell proliferation XTT assay (column 7 in Table 3);

[3] = XTT cell viability assay, non-cancerous cardiac fibroblasts (CF); type: cell-based, rat; settings: rat
Excerpt: Primary non-cancerous rat cardiac fibroblasts (CF);
as §1, §2
“Rat primary cardiac fibroblast CF” represents the lethal concentration in μM as measured against CF cell line, measured as described hereinabove in the cell proliferation XTT assay (column 8 in Table 3);

[4] = system: MCF-7 cell line; type: cell-based
Description: Human breast adenocarcinoma cells (MCF-7);
Thereafter, a series of increasing concentrations of the polymers were added. […] The optical density of the cells was measured at 450 nm by ELISA plate reader after 2-4 hours XTT incubation. Cell viability was determined relative to a control having no polymer added thereto.

[5] = system: TRAMP-C2 cell line; type: cell-based
Excerpt: Transgenic adenocarcinoma mouse prostate cells (TRAMP-C2);
as §1, §2
“Mouse prostate cancer TRAMP-C2” represents the lethal concentration in μM as measured against TRAMP-C2 cell line, measured as described hereinabove in the cell proliferation XTT assay (column 5 in Table 3);

[6] = 24 hours incubation, XTT, read-out: Cancer LC50 Human small-cell lung carcinoma N-417
[7] = primary non-cancerous cardiac fibroblasts (CF), 24 hours incubation, XTT, non-cancerous cells, read-out: Cancer LC50 Rat primary cardiac fibroblast CF
[8] = 24 hours incubation, XTT, read-out: Cancer LC50 Human breast cancer MCF-7
[9] = 24 hours incubation, XTT, read-out: Cancer LC50 Mouse prostate cancer TRAMP-C2
[10] = Cancer LC50 Rat primary cardiac fibroblast CF

Structure (SMILES) | HC50 at 3 h ([1]; red blood cells) | CC50 [2, 6] | CC50 at 24 h [3, 7] | CC50 [4, 8] | CC50 [5, 9] | also measured
CCCCCCCC(=O)N[C@@H](CCCCN)C(=O)NCCCCCCCCCCCC(=O)N[C@@H](CCCCN)C(=O)N[C@@H](CCCCN)C(=O)NCCCCCCCCCCCC(=O)N[C@@H](CCCCN)C(=O)N[C@@H](CCCCN)C(=O)NCCCCCCCCCCCC(=O)N[C@@H](CCCCN)C(N)=O [C8(KNC12K)3NH2] (Octanoyl-K[12Ado]KK[12Ado]KK[12Ado]K-NH2) | 51 ± 6 µM | 9 ± 1.4 µM | 37 ± 1 µM | 8.7 ± 0.5 µM | 15 ± 0.7 µM | 
NCCCC[C@@H]1NC(=O)CCCCCCCCCCCNC(=O)[C@H](CCCCN)NC(=O)[C@H](CCCCN)NC(=O)CCCCCCCCCCCNC1=O [Cyclic-NC12KKNC12K] (HELM PEPTIDE1{[O=C(CCCCCCCCCCCN[*:1])[*:2]].K.[O=C(CCCCCCCCCCCN[*:1])[*:2]].K.K}$PEPTIDE1,PEPTIDE1,1:R1-5:R2$$$V2.0) | > 100 µM |  |  |  |  | 
NCCCC[C@H](NC(=O)CCCCCCCCCCCNC(=O)[C@H](CCCCN)NC(=O)[C@@H](N)CCCCN)C(N)=O [KKNC12KNH2] (HELM PEPTIDE1{K.K.[O=C(CCCCCCCCCCCN[*:1])[*:2]].K.[am]}$$$$V2.0) |  |  |  |  |  | CC50 ([2]; human, 24 h): > 16 µM; CC50 at 24 h [3, 10]: > 16 µM; CC50 ([4]; human, 24 h): > 16 µM; CC50 ([5]; mouse, 24 h): > 16 µM
CCCCCCCCCCCC(=O)N[C@@H](CCCCN)C(=O)NCCCCCCCCCCCC(=O)N[C@@H](CCCCN)C(=O)N[C@@H](CCCCN)C(=O)NCCCCCCCCCCCC(=O)N[C@@H](CCCCN)C(=O)N[C@@H](CCCCN)C(=O)NCCCCCCCCCCCC(=O)N[C@@H](CCCCN)C(N)=O (Lauroyl-K[12Ado]KK[12Ado]KK[12Ado]K-NH2) | 10 ± 0.1 µM | < 16 µM | > 16 µM | 6 ± 1 µM | 10 µM | CC50 at 24 h ([3]; primary non-cancerous cardiac fibroblasts (CF), dose-dependent plots, FIGS. 4a-b, 6a, read-out: LC50 against non-cancerous CF cells): 38 µM; CC50 ([5]; dose-dependent plot, FIG. 6a, read-out: LC50 towards TRAMP-C2 cells): 11 µM
NCCCC[C@@H]1NC(=O)CCCCCCCCCCCNC(=O)[C@H](CCCCN)NC(=O)[C@H](CCCCN)NC(=O)CCCCCCCCCCCNC(=O)[C@H](CCCCN)NC(=O)[C@H](CCCCN)NC(=O)CCCCCCCCCCCNC(=O)[C@H](CCCCN)NC1=O [Cyclic-(KNC12K)3] (cyclo(K[12Ado]KK[12Ado]KK[12Ado]K)) |  |  |  |  |  | HC50 at 3 h [1]: > 100 µM
NCCCCCCCCCCCC(=O)N[C@@H](CCCCN)C(=O)N[C@@H](CCCCN)C(=O)NCCCCCCCCCCCC(=O)N[C@@H](CCCCN)C(N)=O [NC12KKNC12KNH2] (HELM PEPTIDE1{[NCCCCCCCCCCCC(=O)[*:2]].K.K.[O=C(CCCCCCCCCCCN[*:1])[*:2]].K.[am]}$$$$V2.0) |  | > 16 µM | > 16 µM | > 16 µM | > 16 µM | 
NCCCC[C@@H]1NC(=O)CCCCCCCCCCCNC(=O)[C@H](CCCCN)NC(=O)[C@H](CCCCN)NC(=O)CCCCCCCCCCCNC(=O)[C@H](CCCCN)NC1=O [Cyclic-(KNC12K)2] (HELM PEPTIDE1{[O=C(CCCCCCCCCCCN[*:1])[*:2]].K.K.[O=C(CCCCCCCCCCCN[*:1])[*:2]].K.K}$PEPTIDE1,PEPTIDE1,1:R1-6:R2$$$V2.0) | > 100 µM |  |  |  |  | 
CCCCCCCCCCCC(=O)N[C@@H](CCCCN)C(=O)N[C@@H](CCCCN)C(=O)NCCCCCCCCCCCC(=O)N[C@@H](CCCCN)C(=O)N[C@@H](CCCCN)C(=O)NCCCCCCCCCCCC(=O)N[C@@H](CCCCN)C(=O)N[C@@H](CCCCN)C(=O)NCCCCCCCCCCCC(=O)N[C@@H](CCCCN)C(N)=O (Lauroyl-KK[12Ado]KK[12Ado]KK[12Ado]K-NH2) | 10 ± 1 µM | 17 ± 2 µM | 36 ± 6 µM | 8 ± 1 µM | > 16 µM | 
NCCCC[C@@H]1NC(=O)CCCCCCCCCCCNC(=O)[C@H](CCCCN)NC(=O)CCCCCCCCCCCNC(=O)[C@H](CCCCN)NC(=O)CCCCCCCCCCCNC(=O)[C@H](CCCCN)NC(=O)[C@H](CCCCN)NC(=O)CCCCCCCCCCCNC(=O)[C@H](CCCCN)NC(=O)CCCCCCCCCCCNC1=O [Cyclic-K(NC12K)5] (cyclo(K[12Ado]K[12Ado]K[12Ado]K[12Ado]K[12Ado]K)) |  |  |  |  |  | HC50 at 3 h [1]: 3.4 ± 0.3 µM
NCCCCCCCCCCCC(=O)N[C@@H](CCCCN)C(=O)NCCCCCCCCCCCC(=O)N[C@@H](CCCCN)C(=O)N[C@@H](CCCCN)C(=O)NCCCCCCCCCCCC(=O)N[C@@H](CCCCN)C(N)=O [NC12(KNC12K)2NH2] (H-[12Ado]K[12Ado]KK[12Ado]K-NH2) |  |  |  |  |  | CC50 ([2]; human, 24 h): > 16 µM; CC50 at 24 h [3, 10]: > 16 µM; CC50 ([4]; human, 24 h): > 16 µM; CC50 ([5]; mouse, 24 h): > 16 µM
CCCCCCCC(=O)N[C@@H](CCCCN)C(=O)N[C@@H](CCCCN)C(=O)NCCCCCCCCCCCC(=O)N[C@@H](CCCCN)C(=O)N[C@@H](CCCCN)C(=O)NCCCCCCCCCCCC(=O)N[C@@H](CCCCN)C(=O)N[C@@H](CCCCN)C(=O)NCCCCCCCCCCCC(=O)N[C@@H](CCCCN)C(N)=O [C8K(KNC12K)3NH2] (Octanoyl-KK[12Ado]KK[12Ado]KK[12Ado]K-NH2) | > 100 µM | 10 ± 0.4 µM | 25 ± 8 µM | 5.7 ± 0.3 µM | 16 ± 2 µM | CC50 at 24 h ([3]; LC50 against non-cancerous CF cells): 25 µM; CC50 ([4]; dose-dependent plots, FIGS. 4a-b, read-out: LC50 against MCF-7 cells): 5.5 µM
CCCCCCCC(=O)N[C@@H](CCCCN)C(=O)NCCCCCCCCCCCC(=O)N[C@@H](CCCCN)C(=O)N[C@@H](CCCCN)C(=O)NCCCCCCCCCCCC(=O)N[C@@H](CCCCN)C(N)=O [C8(KNC12K)2NH2] (Octanoyl-K[12Ado]KK[12Ado]K-NH2) |  | > 16 µM | > 16 µM | > 16 µM | > 8 µM | 
NCCCCCCCCCCCC(=O)N[C@@H](CCCCN)C(=O)N[C@@H](CCCCN)C(=O)NCCCCCCCCCCCC(=O)N[C@@H](CCCCN)C(=O)N[C@@H](CCCCN)C(=O)NCCCCCCCCCCCC(=O)N[C@@H](CCCCN)C(N)=O [NC12K(KNC12K)2NH2] (H-[12Ado]KK[12Ado]KK[12Ado]K-NH2) |  | > 16 µM | > 16 µM | > 16 µM | > 16 µM | 
CCCCCCCCCCCC(=O)N[C@@H](CCCCN)C(=O)N[C@@H](CCCCN)C(=O)NCCCCCCCCCCCC(=O)N[C@@H](CCCCN)C(N)=O [C12KKNC12KNH2] (HELM PEPTIDE1{[CCCCCCCCCCCC(=O)[*:2]].K.K.[O=C(CCCCCCCCCCCN[*:1])[*:2]].K.[am]}$$$$V2.0) |  |  |  |  |  | CC50 ([2]; human, 24 h): > 50 µM; CC50 at 24 h [3, 10]: > 16 µM; CC50 ([4]; human, 24 h): > 16 µM; CC50 ([5]; mouse, 24 h): > 16 µM
NCCCC[C@@H]1NC(=O)CCCCCCCCCCCNC(=O)[C@H](CCCCN)NC(=O)[C@H](CCCCN)NC(=O)CCCCCCCCCCCNC(=O)[C@H](CCCCN)NC(=O)[C@H](CCCCN)NC(=O)CCCCCCCCCCCNC1=O [Cyclic-NC12K(KNC12K)2] (cyclo([12Ado]KK[12Ado]KK[12Ado]K)) |  |  |  |  |  | HC50 at 3 h [1]: > 100 µM
NCCCC[C@H](NC(=O)CCCCCCCCCCCNC(=O)[C@H](CCCCN)NC(=O)[C@H](CCCCN)NC(=O)CCCCCCCCCCCNC(=O)[C@H](CCCCN)NC(=O)[C@@H](N)CCCCN)C(N)=O [K(KNC12K)2NH2] (HELM PEPTIDE1{K.K.[O=C(CCCCCCCCCCCN[*:1])[*:2]].K.K.[O=C(CCCCCCCCCCCN[*:1])[*:2]].K.[am]}$$$$V2.0) |  | > 16 µM | > 16 µM | > 16 µM | > 16 µM | 
CCCCCCCC(=O)N[C@@H](CCCCN)C(=O)N[C@@H](CCCCN)C(=O)NCCCCCCCCCCCC(=O)N[C@@H](CCCCN)C(N)=O [C8KKNC12KNH2] (HELM PEPTIDE1{[CCCCCCCC(=O)[*:2]].K.K.[O=C(CCCCCCCCCCCN[*:1])[*:2]].K.[am]}$$$$V2.0) |  |  |  |  |  | CC50 ([2]; human, 24 h): > 16 µM; CC50 at 24 h [3, 10]: > 16 µM; CC50 ([4]; human, 24 h): > 16 µM; CC50 ([5]; mouse, 24 h): > 16 µM
CCCCCCCC(=O)N[C@@H](CCCCN)C(=O)N[C@@H](CCCCN)C(=O)NCCCCCCCCCCCC(=O)N[C@@H](CCCCN)C(=O)N[C@@H](CCCCN)C(=O)NCCCCCCCCCCCC(=O)N[C@@H](CCCCN)C(N)=O [C8K(KNC12K)2NH2] (Octanoyl-KK[12Ado]KK[12Ado]K-NH2) |  | > 16 µM | > 50 µM | 20 ± 1 µM | > 16 µM | 
